According to patent US5750391A, “Filariid nematode cysteine protease proteins” (Heska Corporation, priority 1995, dated 1998):
Entries after “also recorded” stand apart in the source; their conditions may differ. Read-outs that look alike come from different tables or passages of the source.

Tests used:
astacin = settings: cited from earlier work
D. immitis larvae = assay: Effect of protease inhibitors on larval molting (L3 cultured in NI medium); assay type: cell-based, Dirofilaria immitis; settings: for inhibition at 1000 µM / inhibition at 2500 µM / inhibition at 5000 µM: Dirofilaria immitis, 72 h, read-out: % reduction (of molt vs control); for % molt: L3 larvae, 72 hours, 37° C.

Compound	inhibition of astacin activity (astacin)	ability of the larvae to molt (D. immitis larvae)	condition of treated larvae (D. immitis larvae)	movement of treated larvae compared to controls (D. immitis larvae)	inhibition at 1000 µM (D. immitis larvae) [%]	inhibition at 2500 µM (D. immitis larvae) [%]	inhibition at 5000 µM (D. immitis larvae) [%]	% molt (D. immitis larvae; 1.0 mM inhibitor) [%]	% molt (D. immitis larvae; 2.5 mM inhibitor) [%]	% molt (D. immitis larvae; 5.0 mM inhibitor) [%]	movement of treated larvae compared to controls (D. immitis larvae; observed daily throughout the study)	ability of the larvae to molt (D. immitis larvae; treatment of L3, 1 to 5 mM)
c1cnc2c(c1)ccc1cccnc12 [1,10-phenanthroline]	inhibited											
CC(C)C[C@H](NP(=O)(O)O[C@@H]1O[C@@H](C)[C@H](O)[C@@H](O)[C@H]1O)C(=O)N[C@@H](Cc1c[nH]c2ccccc12)C(=O)O [Phosphoramidon]	not by phosphoramidon	inhibit molting; also recorded: significantly reduces the ability of the larvae to molt	in poor shape	very active	48.4	85.1	100					
CC(C)C[C@H](NC(=O)[C@@H](O)[C@H](N)Cc1ccccc1)C(=O)O [Bestatin]					27.3	57.9	94.1	60.0	34.8	4.9	moved much more slowly	inhibit molting; also recorded: significantly reduces the ability of the larvae to molt
O=C(O)CN(CCN(CC(=O)O)CC(=O)O)CC(=O)O [EDTA, ethylene diamine tetraacetic acid]	inhibited											
